According to the NIST ThermoML archive (doi:10.1016/j.fluid.2013.08.005):
Numbers after ± are expanded uncertainties.

Assay: molar heat capacity at constant pressure; mn = molality of the nth substance listed, in mol/kg
Conditions: 101 kPa, Liquid, Large sample (1 g) DSC

CCCCCC[N+](C)(C)C.[Br-] [hexyltrimethylammonium bromide] + O
molar heat capacity at constant pressure [J/K/mol]
Conditions | 298.15 K | 303.15 K | 308.15 K | 313.15 K
m1 = 0.01002 | 75.42 ± 1.3 | 75.39 ± 1.3 | 75.38 ± 1.3 | 75.39 ± 1.3
m1 = 0.02406 | 75.57 ± 1.3 | 75.55 ± 1.3 | 75.54 ± 1.3 | 75.55 ± 1.3
m1 = 0.03 | 75.65 ± 1.3 | 75.62 ± 1.3 | 75.61 ± 1.3 | 75.63 ± 1.3
m1 = 0.03989 | 75.72 ± 1.3 | 75.7 ± 1.3 | 75.69 ± 1.3 | 75.69 ± 1.3
m1 = 0.045 | 75.7 ± 1.3 | 75.68 ± 1.3 | 75.67 ± 1.3 | 75.7 ± 1.3
m1 = 0.04985 | 75.78 ± 1.3 | 75.76 ± 1.3 | 75.75 ± 1.3 | 75.76 ± 1.3
m1 = 0.05497 | 75.82 ± 1.3 | 75.79 ± 1.3 | 75.78 ± 1.3 | 75.8 ± 1.3
m1 = 0.05996 | 75.89 ± 1.3 | 75.86 ± 1.3 | 75.86 ± 1.3 | 75.87 ± 1.3
m1 = 0.07507 | 75.97 ± 1.3 | 75.95 ± 1.3 | 75.94 ± 1.3 | 75.95 ± 1.3
m1 = 0.07976 | 76.04 ± 1.3 | 76.02 ± 1.3 | 76.02 ± 1.3 | 76.02 ± 1.3
m1 = 0.09 | 76.13 ± 1.3 | 76.11 ± 1.3 | 76.11 ± 1.3 | 76.12 ± 1.3
m1 = 0.09694 | 76.14 ± 1.3 | 76.12 ± 1.3 | 76.11 ± 1.3 | 76.13 ± 1.3
m1 = 0.11 | 76.31 ± 1.3 | 76.29 ± 1.3 | 76.28 ± 1.3 | 76.3 ± 1.3
m1 = 0.1199 | 76.37 ± 1.3 | 76.35 ± 1.3 | 76.35 ± 1.3 | 76.36 ± 1.3
m1 = 0.1251 | 76.39 ± 1.3 | 76.36 ± 1.3 | 76.36 ± 1.3 | 76.38 ± 1.3
m1 = 0.1301 | 76.52 ± 1.3 | 76.51 ± 1.3 | 76.51 ± 1.3 | 76.52 ± 1.3
m1 = 0.14 | 76.58 ± 1.3 | 76.56 ± 1.3 | 76.55 ± 1.3 | 76.57 ± 1.3
m1 = 0.1502 | 76.59 ± 1.3 | 76.57 ± 1.3 | 76.57 ± 1.3 | 76.58 ± 1.3
m1 = 0.1751 | 76.79 ± 1.3 | 76.78 ± 1.3 | 76.77 ± 1.3 | 76.78 ± 1.3
m1 = 0.1993 | 77 ± 1.3 | 76.98 ± 1.3 | 76.98 ± 1.3 | 77 ± 1.3
m1 = 0.2248 | 77.21 ± 1.3 | 77.19 ± 1.3 | 77.19 ± 1.3 | 77.21 ± 1.3
m1 = 0.2507 | 77.41 ± 1.3 | 77.4 ± 1.3 | 77.41 ± 1.3 | 77.43 ± 1.3
m1 = 0.2757 | 77.59 ± 1.3 | 77.58 ± 1.3 | 77.59 ± 1.3 | 77.61 ± 1.3
m1 = 0.2801 | 77.65 ± 1.3 | 77.64 ± 1.3 | 77.66 ± 1.3 | 77.71 ± 1.3
m1 = 0.2851 | 77.71 ± 1.3 | 77.7 ± 1.3 | 77.69 ± 1.3 | 77.71 ± 1.3
m1 = 0.2996 | 77.82 ± 1.3 | 77.8 ± 1.3 | 77.8 ± 1.3 | 77.83 ± 1.3
m1 = 0.3222 | 78.01 ± 1.4 | 78 ± 1.4 | 78.01 ± 1.4 | 78.06 ± 1.4
m1 = 0.3311 | 78.06 ± 1.4 | 78.05 ± 1.4 | 78.06 ± 1.4 | 78.09 ± 1.4
m1 = 0.3512 | 78.21 ± 1.4 | 78.21 ± 1.4 | 78.21 ± 1.4 | 78.23 ± 1.4
m1 = 0.4002 | 78.59 ± 1.4 | 78.59 ± 1.4 | 78.6 ± 1.4 | 78.64 ± 1.4
m1 = 0.4258 | 78.85 ± 1.4 | 78.84 ± 1.4 | 78.84 ± 1.4 | 78.86 ± 1.4
m1 = 0.4503 | 79 ± 1.4 | 78.99 ± 1.4 | 79 ± 1.4 | 79.02 ± 1.4
m1 = 0.4998 | 79.37 ± 1.4 | 79.37 ± 1.4 | 79.38 ± 1.4 | 79.41 ± 1.4
m1 = 0.5263 | 79.58 ± 1.4 | 79.57 ± 1.4 | 79.58 ± 1.4 | 79.61 ± 1.4
m1 = 0.5513 | 79.72 ± 1.4 | 79.73 ± 1.4 | 79.75 ± 1.4 | 79.77 ± 1.4
m1 = 0.5742 | 79.94 ± 1.4 | 79.95 ± 1.4 | 79.96 ± 1.4 | 79.98 ± 1.4
m1 = 0.6007 | 80.15 ± 1.4 | 80.16 ± 1.4 | 80.18 ± 1.4 | 80.22 ± 1.4
m1 = 0.6516 | 80.55 ± 1.4 | 80.56 ± 1.4 | 80.57 ± 1.4 | 80.59 ± 1.4
m1 = 0.701 | 80.9 ± 1.4 | 80.91 ± 1.4 | 80.92 ± 1.4 | 80.95 ± 1.4
m1 = 0.7517 | 81.28 ± 1.4 | 81.29 ± 1.4 | 81.31 ± 1.4 | 81.33 ± 1.4
m1 = 0.8016 | 81.66 ± 1.4 | 81.67 ± 1.4 | 81.68 ± 1.4 | 81.71 ± 1.4
m1 = 0.8842 | 82.28 ± 1.4 | 82.29 ± 1.4 | 82.31 ± 1.4 | 82.33 ± 1.4
m1 = 0.9496 | 82.77 ± 1.4 | 82.78 ± 1.4 | 82.79 ± 1.4 | 82.81 ± 1.4
m1 = 0.9915 | 83.01 ± 1.4 | 83.02 ± 1.4 | 83.05 ± 1.4 | 83.08 ± 1.4
